Results published in US20230218539A1, “TRANSDERMAL THERAPEUTIC SYSTEM COMPRISING THE INGREDIENT ROTIGOTINE AND AT LEAST ONE NON-AMINE-RESISTANT SILICONE ADHESIVE” (Luye Pharma Switzerland AG, priority 2020, published 2023).

Columns and labels:
[1] = Solubility of rotigotine in matrix components; assay type: physicochemical
[2] = as described in WO 2009/068520; cited from earlier work

Compound	Solubility in a crystallization inhibitor such as polyvinylpyrrolidone [1]	Solubility in silicone adhesives [1]	Thermodynamic stability of the polymorphic form [2]
CCCN(CCc1cccs1)[C@H]1CCc2c(O)cccc2C1 [Rotigotine]	good soluble	very poorly soluble	
CCCN(CCc1cccs1)[C@H]1CCc2c(O)cccc2C1 [polymorphic form II]			thermodynamically more stable than the polymorphic form I
